In article PMC12514842, “Ligand binding Pro‐miscuity of acylpeptide hydrolase, structural analysis of a detoxifying serine hydrolase” (Protein Science : A Publication of the Protein Society, 2025):

What was measured:
[1] = target: T1, pAPEH (porcine liver acylpeptide hydrolase, acylaminoacyl-peptidase, AAP) (Sus scrofa, UniProt P19205); type: binding
T1 construct: gene APEH; native, purified from porcine liver; homotetramer; catalytic Ser587, Asp675, His707
T1 sequence (P19205 1-732): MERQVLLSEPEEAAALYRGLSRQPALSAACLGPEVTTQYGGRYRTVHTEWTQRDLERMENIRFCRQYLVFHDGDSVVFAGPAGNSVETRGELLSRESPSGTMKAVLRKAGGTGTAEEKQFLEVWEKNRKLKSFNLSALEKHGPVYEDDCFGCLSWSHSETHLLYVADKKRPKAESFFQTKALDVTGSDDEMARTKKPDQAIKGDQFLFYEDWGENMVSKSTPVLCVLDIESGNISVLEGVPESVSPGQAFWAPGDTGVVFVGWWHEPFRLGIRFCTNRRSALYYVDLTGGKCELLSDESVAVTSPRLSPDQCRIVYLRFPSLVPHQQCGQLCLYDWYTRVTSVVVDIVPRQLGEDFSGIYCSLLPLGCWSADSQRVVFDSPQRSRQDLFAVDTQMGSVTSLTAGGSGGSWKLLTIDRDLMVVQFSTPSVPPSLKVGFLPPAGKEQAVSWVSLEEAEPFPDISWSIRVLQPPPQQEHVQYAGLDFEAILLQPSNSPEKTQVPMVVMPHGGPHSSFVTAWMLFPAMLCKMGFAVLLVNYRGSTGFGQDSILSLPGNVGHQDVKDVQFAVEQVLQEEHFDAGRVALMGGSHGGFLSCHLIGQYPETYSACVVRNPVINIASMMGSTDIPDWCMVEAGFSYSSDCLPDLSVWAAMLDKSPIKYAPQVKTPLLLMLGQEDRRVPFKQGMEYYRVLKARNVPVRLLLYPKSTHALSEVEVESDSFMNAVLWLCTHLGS

PhAPEH (PhAAP) = target: T2, PhAPEH (PhAAP) (Pyrococcus horikoshii, UniProt O58323); assay: hydrolysis of p-nitroanilide substrate; type: biochemical
T2 construct: gene PH0594; produced by the authors; details only in Data S1 chapter II
T2 sequence (O58323 1-622): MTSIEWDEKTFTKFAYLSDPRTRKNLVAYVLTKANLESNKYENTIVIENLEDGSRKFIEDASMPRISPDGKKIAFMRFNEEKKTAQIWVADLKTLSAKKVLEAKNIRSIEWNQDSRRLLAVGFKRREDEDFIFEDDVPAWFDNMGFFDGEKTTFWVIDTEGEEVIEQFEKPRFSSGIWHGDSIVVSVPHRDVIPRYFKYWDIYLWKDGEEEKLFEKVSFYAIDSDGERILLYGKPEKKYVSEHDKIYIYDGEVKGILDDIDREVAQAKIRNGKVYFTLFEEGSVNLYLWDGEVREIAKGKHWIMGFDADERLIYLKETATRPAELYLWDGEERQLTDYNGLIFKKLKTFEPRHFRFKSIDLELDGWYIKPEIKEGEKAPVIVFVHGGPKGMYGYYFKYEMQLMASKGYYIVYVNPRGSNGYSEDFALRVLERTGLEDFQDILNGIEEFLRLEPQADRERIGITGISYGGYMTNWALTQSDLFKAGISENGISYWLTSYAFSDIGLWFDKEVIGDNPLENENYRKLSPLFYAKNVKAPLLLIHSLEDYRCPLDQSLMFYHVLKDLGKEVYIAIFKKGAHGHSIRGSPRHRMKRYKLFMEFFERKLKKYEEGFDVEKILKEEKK

ApAPEH (ApAAP) = target: T3, ApAPEH (ApAAP) (Aeropyrum pernix, UniProt Q9YBQ2); assay: hydrolysis of p-nitroanilide substrate; type: biochemical
T3 construct: gene APE_1547.1; produced by the authors; details only in Data S1 chapter II

[2] = target: T1, pAPEH (porcine liver acylpeptide hydrolase, acylaminoacyl-peptidase, AAP); type: binding; remark: listed apart in the source
[3] = target: T1, pAPEH (porcine liver acylpeptide hydrolase, acylaminoacyl-peptidase, AAP); assay: cryo-EM structure of complex ([…] A); type: binding; conditions: covalent; Ser587 and His707; 10-fold molar excess, pH 7.5, 37 °C, 1 h

T3 sequence (Q9YBQ2 whole entry): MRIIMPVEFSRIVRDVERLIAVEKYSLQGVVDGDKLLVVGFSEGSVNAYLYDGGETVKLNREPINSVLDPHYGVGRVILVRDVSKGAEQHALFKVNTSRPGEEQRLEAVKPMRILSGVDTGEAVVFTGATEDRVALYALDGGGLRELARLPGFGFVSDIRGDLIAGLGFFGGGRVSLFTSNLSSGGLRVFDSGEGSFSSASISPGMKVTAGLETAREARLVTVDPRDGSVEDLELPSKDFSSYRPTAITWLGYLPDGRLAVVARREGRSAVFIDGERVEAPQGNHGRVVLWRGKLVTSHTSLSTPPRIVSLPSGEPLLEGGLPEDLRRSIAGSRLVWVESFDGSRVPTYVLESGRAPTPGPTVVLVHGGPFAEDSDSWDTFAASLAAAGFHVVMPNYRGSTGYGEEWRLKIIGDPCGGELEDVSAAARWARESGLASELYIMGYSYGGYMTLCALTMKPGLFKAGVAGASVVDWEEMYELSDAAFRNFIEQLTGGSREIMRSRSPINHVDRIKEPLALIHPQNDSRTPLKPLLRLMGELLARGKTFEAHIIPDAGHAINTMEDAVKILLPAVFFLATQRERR

NCCc1ccc(S(=O)(=O)F)cc1 [ligand 3, 4-(2-aminoethyl)benzenesulfonyl fluoride]
cryo-EM structure of complex (2.78 A) [1]: thus the inhibitor directly coordinates to the active Ser

CC(=O)N[C@@H](CC(C)C)C(=O)Nc1ccc([N+](=O)[O-])cc1 [Ac-Leu-pNA]
hydrolysis of p-nitroanilide substrate (PhAPEH (PhAAP)): archaeal variants are quite selective toward their specific substrate Ac‐Leu‐pNA | hydrolysis of p-nitroanilide substrate (ApAPEH (ApAAP)): archaeal variants are quite selective toward their specific substrate Ac‐Leu‐pNA

COP(=O)(OC)OC=C(Cl)Cl [ligand 2, dichlorvos]
cryo-EM structure of complex (2.65 A) [2]: Dimethoxy‐phosphate (DMP) residue of dichlorvos is bound covalently to the active Ser587

CC(=O)N[C@@H](C)C(=O)CCl [ligand 1, acetyl-alanyl-chloromethyl ketone]
cryo-EM structure of complex (3.19 A) [3]: bound covalently to the active Ser587 and His707 (Figure 2a) of each monomer
